The results in this text go back to patent US9783572B2, “Synthesis of syrbactin proteasome inhibitors” (The Regents of the University of California, priority 2009, dated 2017).

The subject of series [1] is RPMI/8226 multiple myeloma cell line. Description: Percent survival of cells, multiple myeloma versus leukemia line (FIG. 2). The format is cell-based. As to conditions: FIG. 2, percent survival. From the text: Bortezomib (BZM), the first proteasome inhibitor to reach the clinic, is being used to treat patients with multiple myeloma and mantle cell lymphoma, and this is reflective of this agent's differential potency in different tumor cell types.

Series [2] has as its system ubiquitinated proteins (proteasome activity) in REH cells. Put plainly: Western blot with anti-ubiquitin antibody in treated REH cells (FIG. 3). As to conditions: increasing concentrations. The series is classed as cell-based, human. From the text: An antibody against ubiquitin to reveal the presence of ubiquitinated proteins, which accumulate (and present as a smear, due to different molecular weights) in response to the inhibition of proteasome activity. Actin was used as a loading control.
For orientation: A western blot detects proteins with antibodies after separation by electrophoresis.

In a further series the test system is proteasome. Description: Syringolin A treatment of a human neuroblastoma cell line. As to conditions: 25 μM. The series is classed as cell-based. From the text: They are members of a bioactive natural product family and includes the glidobactins/cepafungins now referred to as the syrbactins. Crystallography established that both syringolin A and B form a covalent adduct with the proteasome via conjugate addition of the N-terminal threonine hydroxyl group to their α,β-unsaturated lactams. Given the known properties of proteasome inhibitors, the action of syringolin A in cancer cells was investigated.

As to `CC(C)C[C@H](NC(=O)[C@H](Cc1ccccc1)NC(=O)c1cnccn1)B(O)O` [BZM, Bortezomib], the “cytotoxicity in RPMI/8226 multiple myeloma cells compared with REH acute lymphocytic leukemia cells” value in series [1] is “more cytotoxic to multiple myeloma cells”. Also, the “accumulation of ubiquitinated proteins” value in series [2] is reported as “substantial accumulation of ubiquitinated proteins”.

Regarding `CC(C)[C@H](NC(=O)N[C@H](C(=O)N[C@H]1/C=C/CCNC(=O)/C=C/[C@H](C(C)C)NC1=O)C(C)C)C(=O)O` [syringolin A], in the series on proteasome, the “accumulation of ubiquitinated proteins” value is given as “time-dependent accumulation of ubiquitinated proteins” and the proteasome activity result is “dose-dependent decrease in proteasome activity”.
